# According to PubChem BioAssay AID743334 (Broad Institute, 2014):
# The source made the active and inactive calls.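 The calls were made as follows: active = curve reaches 40% rise within the top valid dose, in every run; inconclusive = runs give conflicting calls; inactive = opposite-direction activity, or every run inactive.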
# Assay: ATP change in C2C12 myotubes without statin, dose response, counter-screen for statin myotoxicity suppressor project, cell-based, no simvastatin, luminescence, dry powder (AID 743334)
# Conditions: C2C12 myotubes ATP, CellTiter-Glo luminescence, 48 h; for max activity: active compounds read high
SMILES,max activity,other results
C[C@@H]1CN([C@H](C)CO)C(=O)Cc2cc(NC(=O)CCCCCC(=O)Nc3ccccc3N)ccc2O[C@H]1CN(C)Cc1ccc(Oc2ccccc2)cc1,-0.786% (inactive),–
C[C@H]1CN([C@@H](C)CO)C(=O)Cc2cc(NS(=O)(=O)c3ccc(Cl)cc3)ccc2O[C@@H]1CN(C)CC1CCCCC1,4.91% (inactive),–
C[C@H]1CN([C@@H](C)CO)C(=O)Cc2cc(NC(=O)CCCCCC(=O)Nc3ccccc3N)ccc2O[C@H]1CN(C)Cc1ccc(C(F)(F)F)cc1,–,"ATP level change, positive = increase (at 21 µM (top of the series)): 5.44% (inactive)"
C[C@@H]1CN([C@H](C)CO)C(=O)c2cccc(NC(=O)c3nc4ccccc4s3)c2O[C@@H]1CN(C)Cc1ccc(C(=O)Nc2ccccc2N)cc1,-20.8% (inactive),–
C[C@H]1CN([C@@H](C)CO)C(=O)Cc2cc(NC(=O)CCCCCC(=O)Nc3ccccc3N)ccc2O[C@H]1CN(C)CC1CCCCC1,11.1% (inactive),–
C[C@@H]1CN([C@H](C)CO)C(=O)Cc2cc(NS(=O)(=O)c3cn(C)cn3)ccc2O[C@@H]1CN(C)Cc1ccc(Cl)c(Cl)c1,–,"ATP level change, positive = increase (at 19.5 µM (top of the series)): 9.79% (inactive)"
CCCC#Cc1ccc([C@H]2[C@@H](C#N)N(S(=O)(=O)c3cccc(F)c3)[C@H]2CO)cc1,3.4% (inactive),–
COc1ccc(C#Cc2cnc3c(c2)C(=O)N([C@H](C)CO)C[C@H](C)[C@H](CN(C)Cc2ccccc2)O3)cc1OC,15.6% (inactive),–
N#C[C@H]1[C@H](c2ccc(C#Cc3ccc(F)cc3)cc2)[C@H](CO)N1c1nc(-c2ccccc2)cs1,9.97% (inactive),–
C[C@@H]1CN([C@@H](C)CO)C(=O)c2cc(NC(=O)Cc3cn(C)c4ccccc34)ccc2O[C@@H]1CN(C)Cc1ccc(C(=O)Nc2ccccc2N)cc1,14.1% (inactive),–
C[C@H](CO)N1C[C@H](C)[C@H](CN(C)Cc2ccc(C(=O)Nc3ccccc3N)cc2)Oc2ccc(NC(=O)Cc3cn(C)c4ccccc34)cc2C1=O,12.2% (inactive),–
N#C[C@@H]1[C@@H](c2ccc(-c3cccc(F)c3)cc2)[C@H](CO)N1C(=O)c1cccnc1,6.17% (inactive),–
Cc1noc(C)c1S(=O)(=O)Nc1ccc2c(c1)CC(=O)N([C@H](C)CO)C[C@H](C)[C@@H](CN(C)Cc1ccc(C(F)(F)F)cc1)O2,–,"ATP level change, positive = increase (at 19.5 µM (top of the series)): 10.6% (inactive)"
N#C[C@@H]1[C@@H](c2ccccc2)[C@H](CO)N1S(=O)(=O)c1ccc(-c2ccccc2)cc1,-5.62% (inactive),–
C[C@@H]1CN([C@H](C)CO)C(=O)c2cc(NC(=O)Cc3cn(C)c4ccccc34)ccc2O[C@H]1CN(C)Cc1ccc(C(=O)Nc2ccccc2N)cc1,9.28% (inactive),–
O=C(C[C@H]1CC[C@@H]2[C@H](COC[C@H](O)CN2CCC(F)(F)F)O1)NCc1ccc(Oc2ccccc2)cc1,9.67% (inactive),–
N#C[C@H]1N[C@@H](CO)[C@@H]1c1ccc(-c2cccc(F)c2)cc1,7.67% (inactive),–
COc1ccc(C#Cc2cnc3c(c2)C(=O)N([C@H](C)CO)C[C@H](C)[C@@H](CN(C)C(=O)Nc2cccc(OC)c2)O3)cc1,8% (inactive),–
C[C@H]1CN([C@@H](C)CO)C(=O)Cc2cc(NC(=O)CCCCCC(=O)Nc3ccccc3N)ccc2O[C@H]1CN(C)Cc1ccc(Oc2ccccc2)cc1,-10.2% (inactive),–
C[C@H](CO)N1C[C@H](C)[C@H](CN(C)Cc2ccc(C(=O)Nc3ccccc3N)cc2)Oc2ccc(NC(=O)Nc3cccc4ccccc34)cc2C1=O,-0.211% (inactive),–
CN1C(=O)c2cc(NC(=O)c3ccc(F)c(F)c3)ccc2OC[C@H]2O[C@@H](CC(=O)Nc3ccc4c(c3)COC4)CC[C@@H]21,12.6% (inactive),–

SMILES,max activity,other results
N#C[C@@H]1[C@@H](c2ccc(C3=CCCCC3)cc2)[C@H](CO)N1C(=O)NC1CCCC1,-9.58% (inactive),–
N#C[C@@H]1[C@H](c2ccc(-c3cccc(F)c3)cc2)[C@@H](CO)N1C(=O)NC1CCCC1,-0.345% (inactive),–
C[C@H](CO)N1C[C@H](C)[C@@H](CN(C)Cc2ccc(Oc3ccccc3)cc2)Oc2c(NC(=O)Nc3cccc4ccccc34)cccc2C1=O,–,"ATP level change, positive = increase (at 19.5 µM (top of the series)): 8.68% (inactive)"
CCCNC(=O)N1[C@H](CO)[C@H](c2ccccc2)[C@@H]1C#N,-8.33% (inactive),–
O=C(C[C@H]1CC[C@@H]2[C@H](COC[C@@H](O)CN2Cc2ccc(Oc3ccccc3)cc2)O1)N1CCCCC1,14% (inactive),–
C[C@@H]1CN([C@H](C)CO)C(=O)Cc2cc(NC(=O)C3CCCCC3)ccc2O[C@H]1CN(C)Cc1ccc(Cl)c(Cl)c1,–,"ATP level change, positive = increase (at 19.5 µM (top of the series)): 15.1% (inactive)"
CN(C)C(=O)c1cccc(-c2ccc([C@@H]3[C@@H](C#N)N(C(=O)C4CCCC4)[C@@H]3CO)cc2)c1,-5.88% (inactive),–
N#C[C@@H]1[C@@H](c2ccccc2-c2ccc(F)cc2)[C@H](CO)N1C(=O)NC1CCCC1,-6.02% (inactive),–
CC(C)CC#Cc1cnc2c(c1)C(=O)N([C@H](C)CO)C[C@H](C)[C@@H](CN(C)C(=O)Cc1ccccc1)O2,–,"ATP level change, positive = increase (at 21 µM (top of the series)): 6.23% (inactive)"
C/C=C/c1ccc([C@H]2[C@@H](CO)N(C(=O)NC3CCCC3)[C@H]2C#N)cc1,-3.18% (inactive),–
CCCNC(=O)N1[C@@H](C#N)[C@@H](c2ccc(-c3ccccc3F)cc2)[C@@H]1CO,6.49% (inactive),–
C[C@@H]1CN([C@H](C)CO)C(=O)Cc2cc(NS(=O)(=O)c3ccc(Cl)cc3)ccc2O[C@H]1CN(C)Cc1ccccc1,–,"ATP level change, positive = increase (at 19.5 µM (top of the series)): 13% (inactive)"
CCS(=O)(=O)N1[C@H](C#N)[C@@H](c2ccc(-c3cccc(F)c3)cc2)[C@@H]1CO,-8.9% (inactive),–
N#C[C@@H]1[C@@H](c2ccccc2-c2cccc(F)c2)[C@H](CO)N1C(=O)NC1CCCC1,11.6% (inactive),–
C[C@H](CO)N1C[C@H](C)[C@@H](CN(C)Cc2ccc(C(=O)Nc3ccccc3N)cc2)Oc2ccc(NC(=O)Cc3cn(C)c4ccccc34)cc2C1=O,-9.11% (inactive),–
N#C[C@H]1[C@@H](c2ccc(-c3cccc(F)c3)cc2)[C@H](CO)N1C(=O)NC1CCCC1,9.12% (inactive),–
N#C[C@@H]1[C@@H](c2ccc(C#Cc3cccnc3)cc2)[C@@H](CO)N1C(=O)C1CCCC1,-10.7% (inactive),–
C[C@H]1CN([C@@H](C)CO)C(=O)c2cc(NC(=O)Cc3cn(C)c4ccccc34)ccc2O[C@H]1CN(C)Cc1ccc(C(=O)Nc2ccccc2N)cc1,5.76% (inactive),–
C[C@H]1CN([C@@H](C)CO)S(=O)(=O)c2ccc(C#Cc3ccc(F)cc3)cc2O[C@@H]1CN(C)S(=O)(=O)c1cn(C)cn1,–,"ATP level change, positive = increase (at 19.5 µM (top of the series)): 6.04% (inactive)"
Cc1ccc(S(=O)(=O)Nc2ccc3c(c2)CC(=O)N([C@@H](C)CO)C[C@@H](C)[C@H](CN(C)Cc2ccc(-c4ccccc4)cc2)O3)cc1,–,"ATP level change, positive = increase (at 19.5 µM (top of the series)): -0.559% (inactive)"
C[C@H]1CN([C@@H](C)CO)C(=O)c2cc(N(C)C)ccc2O[C@@H]1CN(C)Cc1ccc(C(=O)Nc2ccccc2N)cc1,–,"ATP level change, positive = increase (at 19.5 µM (top of the series)): 3.03% (inactive)"

SMILES,max activity,other results
C[C@@H]1CN([C@@H](C)CO)C(=O)Cc2cc(NC(=O)CCCCCC(=O)Nc3ccccc3N)ccc2O[C@@H]1CN(C)Cc1ccc(Oc2ccccc2)cc1,-25.1% (inactive),–
C[C@@H]1CN([C@H](C)CO)C(=O)c2cccc(NC(=O)Nc3ccc4c(c3)OCO4)c2O[C@H]1CN(C)Cc1ccc(C(=O)Nc2ccccc2N)cc1,-9.22% (inactive),–
N#C[C@@H]1[C@@H](c2ccc(-c3ccc(F)cc3)cc2)[C@H](CO)N1C(=O)Cc1ccccc1,–,"ATP level change, positive = increase (at 19.5 µM (top of the series)): 2.91% (inactive)"
N#C[C@@H]1[C@@H](c2ccc(-c3cccc(F)c3)cc2)[C@@H](CO)N1C(=O)NC1CCCC1,2.16% (inactive),–
C[C@@H]1CN([C@@H](C)CO)C(=O)c2cccc(NC(=O)Nc3ccc4c(c3)OCO4)c2O[C@H]1CN(C)Cc1ccc(C(=O)Nc2ccccc2N)cc1,–,"ATP level change, positive = increase (at 19.5 µM (top of the series)): 16.4% (inactive)"
C[C@@H]1CN([C@H](C)CO)C(=O)Cc2cc(NC(=O)CCCCCC(=O)Nc3ccccc3N)ccc2O[C@@H]1CN(C)Cc1ccc(Oc2ccccc2)cc1,-23.3% (inactive),–
C[C@H]1CN([C@@H](C)CO)C(=O)Cc2cc(NC(=O)Nc3cccc4ccccc34)ccc2O[C@H]1CN(C)Cc1ccc(C(=O)Nc2ccccc2N)cc1,10.8% (inactive),–
C[C@H](CO)N1C[C@H](C)[C@H](CN(C)Cc2ccc(C(=O)Nc3ccccc3N)cc2)Oc2ccc(N(C)C)cc2C1=O,-24.5% (inactive),–
Cc1ccc(S(=O)(=O)N(C)C[C@@H]2Oc3ccc(NS(=O)(=O)c4ccc(Cl)cc4)cc3C(=O)N([C@H](C)CO)C[C@@H]2C)cc1,–,"ATP level change, positive = increase (at 19.5 µM (top of the series)): -0.772% (inactive)"
C[C@H]1CN([C@@H](C)CO)C(=O)Cc2cc(NC(=O)CCCCCC(=O)Nc3ccccc3N)ccc2O[C@@H]1CN(C)Cc1ccc(Oc2ccccc2)cc1,-15.5% (inactive),–
C[C@H](CO)N1C[C@H](C)[C@H](CN(C)Cc2ccc(Oc3ccccc3)cc2)Oc2ccc(NC(=O)CCCCCC(=O)Nc3ccccc3N)cc2CC1=O,-48.9% (inactive),–
C[C@H](CO)N1C[C@H](C)[C@H](CN(C)Cc2ccc3c(c2)OCO3)Oc2ccc(NC(=O)CCCCCC(=O)Nc3ccccc3N)cc2CC1=O,–,"ATP level change, positive = increase (at 18 µM (top of the series)): 12% (inactive)"
N#C[C@H]1[C@H](c2ccc(-c3cccc(F)c3)cc2)[C@H](CO)N1C(=O)NC1CCCC1,-7.45% (inactive),–
N#C[C@H]1[C@H](c2ccc(C#CCC3CCCC3)cc2)[C@@H](CO)N1C(=O)CN1CCOCC1,-19% (inactive),–
COc1ccc(S(=O)(=O)Nc2cccc3c2O[C@H](CN(C)C(=O)Nc2ccc(F)cc2)[C@H](C)CN([C@@H](C)CO)C3=O)cc1,–,"ATP level change, positive = increase (at 19.5 µM (top of the series)): 14.4% (inactive)"
N#C[C@H]1[C@H](c2ccc(-c3cccc(F)c3)cc2)[C@@H](CO)N1C(=O)NC1CCCC1,1.15% (inactive),–
N#C[C@@H]1[C@@H](c2ccc(C#CC3CCCC3)cc2)[C@H](CO)N1S(=O)(=O)c1ccccc1,-8.85% (inactive),–
C[C@@H]1CN([C@@H](C)CO)C(=O)c2cc(NS(=O)(=O)c3ccc(Cl)cc3)ccc2O[C@H]1CN(C)C(=O)Nc1cccc2ccccc12,–,"ATP level change, positive = increase (at 19.5 µM (top of the series)): 6.56% (inactive)"
COc1ccc(-c2ccc([C@@H]3[C@@H](C#N)N(C(=O)NC4CCCC4)[C@H]3CO)cc2)cc1,5.47% (inactive),–
